# Data published in publication PMC12627862, “Therapeutic targeting of endothelial calcium signaling accelerates the resolution of lung injury” (Signal Transduction and Targeted Therapy, 2025).
# Starred links: 1 amine or outer side, 2 acyl side, 3 side chain; linkers in the order of their positions; H or OH if unused. Non-standard residues stand in square brackets, D forms with d. Residues, ends and D or L forms follow the SMILES beside them. ξ: configuration not given here. Oic = O=C(O)[C@@H]1C[C@@H]2CCCC[C@@H]2N1; GABOB(3R) = O=C(C[C@@H](O)CN[*:1])[*:2]; tBuAla = CC(C)(C)C[C@H](N)C(=O)O; ξVal(3-OH) = CC(C)(O)C(N)C(=O)O; 4Amb = NCc1ccc(C(=O)O)cc1
# Experiment: in vivo
# Conditions: male, Crl:CD (SD), rat, iv, 5 mg/kg
smiles,measurement,value
"CC(C)(C)C[C@@H]1NC(=O)C[C@@H](O)CNC(=O)[C@@H]2C[C@@H]3CCCC[C@@H]3N2C(=O)[C@H](CC(C)(C)C)NC(=O)c2ccc(cc2)CNC(=O)C(C(C)(C)O)NC(=O)[C@@H](Cc2ccccc2)NC1=O (stereo partly drawn) [compound 109, (1^2S,1^3aS,1^7aS,3S,10S,13R,16S,20R)-13-benzyl-20-hydroxy-10-(2-hydroxypropan-2-yl)-3,16-dineopentyl-1^2,1^3,1^3a,1^4,1^5,1^6,1^7,1^7a-octahydro-1^1H-4,8,11,14,17,22-hexaaza-1(1,2)-indola-6(1,4)-benzenacyclotricosaphane-2,5,9,12,15,18,23-heptaone.] (cyclo([4Amb][tBuAla][Oic][GABOB(3R)][tBuAla][dF][ξVal(3-OH)]))",level at 0.167 h,23700 ng/mL
same,level at 0.5 h,2550 ng/mL
same,level at 1 h,580 ng/mL
same,level at 1.5 h,399 ng/mL
same,level at 2 h,252 ng/mL
same,level at 4 h,127 ng/mL
same,level at 6 h,66.3 ng/mL
same,level at 8 h,42.7 ng/mL
same,level at 24 h,5.9 ng/mL
